Results from patent US6673938B1, “Substituted pyridine herbicides” (Syngenta Participations AG, priority 1998, dated 2004).

Assays:
[1] = test system: Monocotyledonous and dicotyledonous test plants; test: Herbicidal action before emergence of the plants (pre-emergence action); type: in vivo; conditions: evaluated after 3 weeks, nine-step scale; for pre-emergence action, Cyperus / pre-emergence action, Ipomoea / pre-emergence action, Setaria / pre-emergence action, Sinapis / pre-emergence action, Solanum / pre-emergence action, Stellaria: 2000 g/ha
Experimental: Monocotyledonous and dicotyledonous test plants are sown in standard soil in plastic pots. Immediately after sowing, the test substances as aqueous suspensions (prepared with a 25% wettable powder (Example F3, b) in accordance with WO 97/34485) or as emulsions (prepared with a 25% emulsion concentrate (Example F1, c)) are sprayed on at a rate of 2 kg of a.i./ha or 250 g of a.i./ha (500 l of water/ha). The test plants are then grown in the greenhouse under optimal conditions. After a test period of 3 weeks, the experiment is evaluated with reference to a nine-step scale (1=complete damage, 9=no effect). Score figures of 1 to 4 (in particular 1 to 3) mean a good to very good herbicidal action.

[2] = test system: Monocotyledonous and dicotyledonous test plants; test: Post-emergence herbicidal action; type: in vivo; conditions: evaluated after approximately 18 days; for Post-emergence action, Ipomoea / Post-emergence action, Lolium / Post-emergence action, Setaria / Post-emergence action, Sinapis / Post-emergence action, Solanum / Post-emergence action, Stellaria: 2000 g/ha, sprayed in 4- to 6-leaf stage, nine-step scale
Outline: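 Greenhouse plants sprayed at the 4- to 6-leaf stage with test substance as wettable-powder suspension or emulsion-concentrate emulsion, 2 kg or 250 g a.i./ha in 500 l water/ha. Scored after about 18 days on a nine-step scale (1=complete damage, 9=no effect).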

Structure (SMILES)	pre-emergence action, Cyperus [1]	pre-emergence action, Ipomoea [1]	pre-emergence action, Setaria [1]	pre-emergence action, Sinapis [1]	pre-emergence action, Solanum [1]	pre-emergence action, Stellaria [1]	Post-emergence action, Ipomoea [2]	Post-emergence action, Lolium [2]	Post-emergence action, Setaria [2]	Post-emergence action, Sinapis [2]	Post-emergence action, Solanum [2]	Post-emergence action, Stellaria [2]	other results
CCc1nc(C(F)(F)F)ccc1C(=O)C1=C(O)CCCC1=O [Compound A3-B1]	2	2	4	2	3	2	1	3	2	1	1	2	
Cc1nc(C(F)(F)F)ccc1C(=O)C1=C(O)CCC2(CCC2)C1=O [Compound A2-C146]	1	2	2	2	1	2	1	2	2	1	2	2	
Cc1nc(C(F)(F)F)ccc1C(=O)C1=C(O)C(C)(C)CC2(CCC2)C1=O [Compound A2-C147]	2	4	2	2	2	2	1	2	2	1	2	2	
COCc1nc(C(F)(F)F)ccc1C(=O)C1=C(O)C(C)CCC1=O (stereo not shown) [Compound A8-B2]	1	3	2	2	1	2	2	2	2	2	2	3	
CC1(C)CCC(=O)C(C(=O)c2ccc(C(F)(F)F)nc2C(F)F)=C1O [Compound A18-B24]	1	1	1	1	1	2	1	2	2	1	2	2	
Cc1nc(C(F)(F)F)ccc1C(=O)C1=C(O)C(C)(C)CC(C)C1=O (stereo not shown) [Compound A2-B68]	1	2	1	2	1	2	1	2	2	1	1	2	
Cc1nc(C(F)(F)Cl)ccc1C(=O)C1=C(O)CCCC1=O [Compound A94-B1]	1	2	2	1	1	2	1	2	2	1	1	1	
CCC1(C)CC(C)(C)C(=O)C(C(=O)c2ccc(C(F)(F)F)nc2C)=C1O (stereo not shown) [Compound A2-B91]	1	2	1	2	1	2	1	2	2	1	2	2	
Cc1cc(C(=O)C2=C(O)CCCC2=O)c(C)nc1C(F)(F)F [Compound A184-B1]	2	4	2	2	1	2	1	3	2	1	2	2	
COCc1nc(C(F)(F)F)ccc1C(=O)C1=C(O)CCCC1=O [Compound A8-B1]													Pre-emergence action, Abutilon ([1]; Abutilon, 250 g/ha): 1; Pre-emergence action, Amaranthus ([1]; Amaranthus, 250 g/ha): 1; Pre-emergence action, Chenop. ([1]; Chenop., 250 g/ha): 1; Pre-emergence action, Digitaria ([1]; Digitaria, 250 g/ha): 2; Pre-emergence action, Echino. ([1]; Echino., 250 g/ha): 2; Pre-emergence action, Panicum ([1]; Panicum, 250 g/ha): 2; Post-emergence action: Abutilon (score, nine-step scale) ([2]; Abutilon, 250 g/ha, sprayed at 4- to 6-leaf stage): 3; Post-emergence action: Chenop. (score, nine-step scale) ([2]; Chenop., 250 g/ha, sprayed at 4- to 6-leaf stage): 2; Post-emergence action: Digitaria (score, nine-step scale) ([2]; Digitaria, 250 g/ha, sprayed at 4- to 6-leaf stage): 3; Post-emergence action: Echino. (score, nine-step scale) ([2]; Echino., 250 g/ha, sprayed at 4- to 6-leaf stage): 3; Post-emergence action: Ipopur. (score, nine-step scale) ([2]; Ipopur., 250 g/ha, sprayed at 4- to 6-leaf stage): 3; Post-emergence action: Panicum (score, nine-step scale) ([2]; Panicum, 250 g/ha, sprayed at 4- to 6-leaf stage): 4; Post-emergence action: Xanth. (score, nine-step scale) ([2]; Xanth., 250 g/ha, sprayed at 4- to 6-leaf stage): 3
CCOC(=O)C1(C)CCC(=O)C(C(=O)c2ccc(C(F)(F)F)nc2C)=C1O (stereo not shown) [Compound A2-B35]	2	4	2	2	2	2	1	3	2	1	1	2	
Cc1nc(C(F)(F)C(F)(F)F)ccc1C(=O)C1=C(O)CCCC1=O [Compound A34-B1]	1	2	2	2	2	3	1	2	2	1	1	2	
CCN(CC)CC.COCc1nc(C(F)(F)F)ccc1C(=O)C1=C(O)CC(C)CC1=O (stereo not shown) [Compound A8-B1101]	2	4	2	2	1	1	2	3	2	1	2	2	
Cc1nc(C(F)(F)F)ccc1C(=O)C1=C(O)CC(C)CC1=O (stereo not shown) [Compound A2-B133]	1	2	2	2	1	2	1	2	2	1	2	2	
Cc1nc(C(F)(F)F)ccc1C(=O)C1=C(O)C(C)(C(C)C)CC(C)(C)C1=O (stereo not shown) [Compound A2-B93]	2	4	2	2	1	2	1	2	2	1	2	2	
